Laboratory results as given in patent publication US5658906A, “Cysteine protease and serine protease inhibitors” (Cephalon, Inc., priority 1996, dated 1997).

Key:
Calpain I = biological target: T1, Calpain I (Homo sapiens, UniProt P07384); test: Inhibition and rate of inactivation of calpain I (Succ-Leu-Tyr-MNA hydrolysis); assay type: biochemical; conditions: mean of three or more independent analyses, corrected for substrate, k2 = kapp(1+[S]/Km), read-out: k2 (second order rate constant of inactivation), A = Calpain I
T1 construct: Calpain I was purified from human red blood cells; from tissue; host or cells: human red blood cells (packed, outdated)
T1 sequence (P07384 1-714): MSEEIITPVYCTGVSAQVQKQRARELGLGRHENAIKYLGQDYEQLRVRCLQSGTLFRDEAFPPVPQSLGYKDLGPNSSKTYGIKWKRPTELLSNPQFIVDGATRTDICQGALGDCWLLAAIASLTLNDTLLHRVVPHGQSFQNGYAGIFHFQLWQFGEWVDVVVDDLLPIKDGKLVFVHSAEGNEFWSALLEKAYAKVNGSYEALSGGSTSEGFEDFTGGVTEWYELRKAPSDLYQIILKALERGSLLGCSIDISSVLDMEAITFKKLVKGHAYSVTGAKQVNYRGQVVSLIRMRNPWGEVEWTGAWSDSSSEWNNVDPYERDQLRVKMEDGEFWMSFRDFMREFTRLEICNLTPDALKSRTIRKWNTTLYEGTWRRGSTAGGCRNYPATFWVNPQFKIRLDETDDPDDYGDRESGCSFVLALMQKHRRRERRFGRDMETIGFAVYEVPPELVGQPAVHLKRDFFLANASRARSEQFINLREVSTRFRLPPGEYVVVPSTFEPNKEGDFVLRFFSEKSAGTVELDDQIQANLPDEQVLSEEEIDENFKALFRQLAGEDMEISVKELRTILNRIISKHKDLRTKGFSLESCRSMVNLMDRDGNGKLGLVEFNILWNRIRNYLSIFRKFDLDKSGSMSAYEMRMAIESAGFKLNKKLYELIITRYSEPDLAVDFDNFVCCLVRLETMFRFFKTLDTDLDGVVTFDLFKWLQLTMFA
T1 sequence (P04632 1-268 partner): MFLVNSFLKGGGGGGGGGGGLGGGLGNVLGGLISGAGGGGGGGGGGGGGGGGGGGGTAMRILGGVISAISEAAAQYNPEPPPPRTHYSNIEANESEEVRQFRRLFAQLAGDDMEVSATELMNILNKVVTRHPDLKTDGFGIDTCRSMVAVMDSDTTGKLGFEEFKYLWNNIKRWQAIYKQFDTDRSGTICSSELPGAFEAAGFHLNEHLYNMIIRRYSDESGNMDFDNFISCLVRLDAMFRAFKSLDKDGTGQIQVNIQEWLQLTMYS

[1] = tested on: calpain I in Molt-4 cells (α-spectrin breakdown products); test: Inhibition of calpain activation in intact Molt-4 cells (calpain-generated spectrin breakdown products); assay type: cell-based; conditions: Homo sapiens, calcium and ionophore (ionomycin), read-out: % Inhibition of BDPs (10 μM)

| kinact/KI (Calpain I) | Structure (SMILES) | inhibition at 10 µM [1] |
| --- | --- | --- |
| 150000 M⁻¹ s⁻¹ | CC(C)C[C@H](NC(=O)OCc1ccccc1)C(=O)N[C@@H](Cc1ccccc1)C(=O)COn1nnc2ccccc21 [Example 3, 1-[N-[N-Benzyloxycarbonyl-L-leucyl]-3S-4-phenyl-3-amino-2-oxobutyloxy]benzotriazole] | 67% |
| 63000 M⁻¹ s⁻¹ | CC[C@H](NC(=O)[C@H](CC(C)C)NC(=O)OCc1ccccc1)C(=O)COn1nnc2ccccc21 [Example 5, 1-[N-[N-Benzyloxycarbonyl-L-leucyl]-3S-3-amino-2-oxopentyloxy] benzotriazole] | 56% |
| 184000 M⁻¹ s⁻¹ | CC(C)C[C@H](NC(=O)OCc1ccccc1)C(=O)N[C@@H](Cc1ccccc1)C(=O)COn1nnc2cccnc21 [Example 6, 3-[N-[N-Benzyloxycarbonyl-L-leucyl]-3S-4-phenyl-3-amino-2-oxobutyloxy]-3H-triazolo[4,5-b]pyridine] | 63% |
| 122000 M⁻¹ s⁻¹ | CC(C)C[C@H](NC(=O)OCc1ccccc1)C(=O)N[C@@H](Cc1ccccc1)C(=O)COn1nnc2ccccc2c1=O [Example 28, 1-[N-[N-Benzyloxycarbonyl-L-leucyl]-3S-4-phenyl-3-amino-2-oxobutyloxy]-3-benzotriazin-4-one] | 68% |
